In brackets after ≈: the same amount, converted by molar mass. Like-named read-outs stand apart in the source and are kept apart here.
Experiments:
[1] = biological target: CDK2:CCNE1 (Homo sapiens (Human), UniProt P24941); assay: NanoBRET assay in MCF-7 cells, CDK2; format: cell-based; conditions: transfected MCF-7 cells, 2 hours, n = 1 or average
Procedure, shortened: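 In live MCF-7 cells, compound added followed by NanoBRET TE Tracer K-9 (stock 200 μM) for CDK2, 2 h at 37° C, 5% CO2.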

[2] = biological target: CDK1:CCNB1 (Homo sapiens (Human), UniProt P06493); assay: NanoBRET assay in MCF-7 cells, CDK1; format: cell-based; conditions: NanoBRET, transfected MCF-7 cells, 2 hours; n = 1 or average; read-out: CDK1 IC50
CDK1:CCNB1, sequence (P06493 whole entry): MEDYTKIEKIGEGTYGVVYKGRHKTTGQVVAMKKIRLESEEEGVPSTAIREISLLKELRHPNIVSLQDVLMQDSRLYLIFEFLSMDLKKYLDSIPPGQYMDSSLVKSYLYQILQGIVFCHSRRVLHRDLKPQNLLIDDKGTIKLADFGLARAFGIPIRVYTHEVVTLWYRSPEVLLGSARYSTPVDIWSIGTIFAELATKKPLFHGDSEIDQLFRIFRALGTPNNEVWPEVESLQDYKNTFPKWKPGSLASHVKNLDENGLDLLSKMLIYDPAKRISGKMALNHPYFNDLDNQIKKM
CDK1:CCNB1, sequence (P14635 whole entry partner): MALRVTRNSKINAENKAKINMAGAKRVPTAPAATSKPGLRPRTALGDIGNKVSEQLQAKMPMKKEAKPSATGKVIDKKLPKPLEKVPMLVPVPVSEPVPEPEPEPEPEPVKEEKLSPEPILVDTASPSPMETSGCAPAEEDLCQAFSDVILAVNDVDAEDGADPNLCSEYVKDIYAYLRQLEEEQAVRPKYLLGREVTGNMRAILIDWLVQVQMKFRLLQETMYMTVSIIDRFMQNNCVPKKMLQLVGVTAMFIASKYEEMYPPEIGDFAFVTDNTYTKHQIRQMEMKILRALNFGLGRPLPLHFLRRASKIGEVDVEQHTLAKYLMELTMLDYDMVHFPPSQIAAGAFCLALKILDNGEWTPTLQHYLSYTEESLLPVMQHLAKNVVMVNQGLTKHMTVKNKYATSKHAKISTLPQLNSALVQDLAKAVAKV
Procedure, shortened: (§1)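 Intracellular target engagement was measured by NanoBRET ratio (460 nm/610 nm) in live MCF-7 cells transiently carrying CDK4:CCND1 (Tracer K-7, 100 μM stock) or CDK1:CCNB1 (Tracer K-9, 400 μM stock).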

[3] = biological target: CDK4:CCND1 (Homo sapiens (Human), UniProt P11802); assay: NanoBRET assay in MCF-7 cells, CDK4; format: cell-based; conditions: NanoBRET, transfected MCF-7 cells, 2 hours; n = 1 or average; read-out: CDK4 IC50
CDK4:CCND1, sequence (P11802 whole entry): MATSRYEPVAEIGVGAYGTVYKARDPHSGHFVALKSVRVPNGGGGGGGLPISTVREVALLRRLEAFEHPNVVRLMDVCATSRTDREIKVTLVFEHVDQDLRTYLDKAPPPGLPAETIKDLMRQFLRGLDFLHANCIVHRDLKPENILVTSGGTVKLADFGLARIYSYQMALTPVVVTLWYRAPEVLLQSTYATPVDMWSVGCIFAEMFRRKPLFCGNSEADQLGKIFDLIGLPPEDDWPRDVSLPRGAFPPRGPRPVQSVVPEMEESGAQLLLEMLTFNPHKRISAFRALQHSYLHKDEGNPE
CDK4:CCND1, sequence (P24385 whole entry partner): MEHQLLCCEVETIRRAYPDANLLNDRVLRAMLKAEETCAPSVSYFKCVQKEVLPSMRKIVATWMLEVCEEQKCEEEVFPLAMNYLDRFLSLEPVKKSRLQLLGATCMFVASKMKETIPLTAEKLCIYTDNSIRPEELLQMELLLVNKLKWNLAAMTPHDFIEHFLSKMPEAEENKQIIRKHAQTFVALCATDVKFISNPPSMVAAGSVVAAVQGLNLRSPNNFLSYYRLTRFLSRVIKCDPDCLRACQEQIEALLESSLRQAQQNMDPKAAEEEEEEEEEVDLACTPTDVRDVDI
Procedure, shortened: as §1

[4] = test system: NPM phosphorylation (Thr199, CDK2-cyclin E complex); assay: NPM phosphorylation imaging assay in MCF-7 cells; format: cell-based; conditions: Homo sapiens, MCF7, 2 hours, 4N DNA cells
Procedure, shortened: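 MCF-7 cells were fixed, permeabilised and immunostained, then imaged for phospho-NPM (Thr199), a CDK2-cyclin E site. Analysis was gated on 4N-DNA cells by Hoechst staining. Signals were normalised to controls and fitted for IC50.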

[5] = test system: POLR2A Ser2 phosphorylation (CDK9); assay: POLR2A Ser2 phosphorylation imaging assay in MCF-7 cells; format: cell-based; conditions: Homo sapiens, MCF7, 2 h, read-out: POLR2A Ser2 phosphorylation IC50
Procedure, shortened: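 MCF-7 cells were fixed, permeabilised and immunostained for POLR2A phospho-Ser2, then imaged by high-content microscopy. Levels were normalised to controls and IC50 values derived.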

[6] = test system: MCF-7 cells; assay: Cellular proliferation EdU assay, MCF-7; format: cell-based; conditions: Homo sapiens, MCF7, 48 h, EdU assay, two days; read-out: MCF-7 IC50
Procedure, shortened: (§2)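 MCF-7 (800 cells/well) and OVCAR3 (1200 cells/well) in RPMI with 10% FBS exposed to compounds for two days at 37 °C.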

[7] = test system: OVCAR3 cells; assay: Cellular proliferation EdU assay, OVCAR3; format: cell-based, human; conditions: Homo sapiens, OVCAR-3, 48 h, EdU assay, two days; read-out: OVCAR3 IC50
Procedure, shortened: as §2

[8] = CLint assessment in human hepatocytes (HH); format: in vitro ADME; design: unit not given here; conditions: pH 7.4
Description: Samples were shaken at 800 rpm for 2 minutes and centrifuged at 4000 rpm for 20 minutes at 4° C. to pellet precipitated protein. The supernatant fraction was diluted 1:5 with deionized water, shaken at 1000 rpm for 2 minutes, and further diluted 1:1 with deionized water. Samples were analyzed by LC-MS/MS.

[9] = CLint assessment in human liver microsomes (HLM); format: in vitro ADME; conditions: 1 μM
Procedure, shortened: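 Microsomes preincubated 8 min with NADPH, then compound added and incubated 30 min at 37° C. Remaining compound measured by LC-MS/MS. t1/2 and CLint calculated, with CLint scaled to incubation volume per mg microsomal protein.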

[10] = Aqueous thermodynamic solubility, shake-flask; format: physicochemical; conditions: aqueous phosphate buffer, 25 °C, pH 7.4, aqueous buffer, thermodynamic from solid, phosphate buffer 0.1 M, pH 7.4, 24 hours
Procedure, shortened: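 After 24 h stirring at 25° C. in pH 7.4 phosphate buffer (0.1 M), solid-free supernatant from two centrifugations was quantified by UPLC/MS/MS after dilution in water. Compound was added as dried material after DMSO removal.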

[11] = test system: OVCAR3 cells; assay: Cell proliferation CyQUANT assay, OVCAR3; format: cell-based; conditions: Homo sapiens, OVCAR-3, 168 h; CyQUANT cell counts, 7 days
Description: (§3) An imaging-based assay was used to investigate changes in cell number in OVCAR3 cells (CCNE1-amplified ovarian cancer cell line) and SKOV3 cells (non-amplified ovarian cancer cell line) treated with test compounds.
(§4) Cells were plated in 384 well plates (Perkin-Elmer 6057300) in RPMI-1640/10% FBS/1× L-Glu at 500 cells per well in 30 μL and incubated with test compound at 37° C. and 5% CO2 for 7 days. Cells were then stained using the CyQuant Direct Cell Proliferation Assay Kit (Thermo Cat #C7026) in accordance with the kit protocol. The stained cells were imaged using an Operetta high content imager to generate cell counts and IC50 values were calculated relative to DMSO controls.

[12] = test system: SKOV3 cells; assay: Cell proliferation CyQUANT assay, SKOV3; format: cell-based; conditions: Homo sapiens, SK-OV-3, 168 h; CyQUANT cell counts, 7 days
Description: as §3, §4

[13] = test system: OVCAR3 human ovarian cancer xenograft; assay: Anti-tumor effect in CCNE1 amplified ovarian xenograft model OVCAR3; format: in vivo, mice; conditions: for % INHIBITION: 28 days
Description: 15 Million OVCAR3 human ovarian cells were implanted subcutaneously in the right flank of female CB17 SCID mice. Mice were randomized into groups of 8 when average tumor volume reached approximately 160 mm^3. […] Palbociclib was dosed orally once daily.

[14] = test system: CTG-3298 human CDK4/6 resistant ER+ breast cancer xenograft; assay: Anti-tumor effect in CTG-3298 CDK4/6 resistant ER+ breast cancer xenograft model; format: in vivo, mice; conditions: for % INHIBITION (end of dosing): 28 days
Description: CTG-3298 ER+ breast xenograft tumors were harvested from donor mice and cut into fragments approximately 50 mm^3 in volume and then reimplanted adjacent to the #3 mammary fat pad.
CTG-3298 ER+ Breast PDX fragments were implanted orthotopically adjacent to the #3 mammary fat pad using a 10-gauge trocar in female NSG mice. […] Palbociclib was dosed orally once daily.

[15] = test system: CTG-3283 human CDK4/6 resistant ER+ breast cancer xenograft; assay: Anti-tumor effect in CTG-3283 CDK4/6 resistant ER+ breast cancer xenograft model; format: in vivo, mice; conditions: for % INHIBITION (end of dosing): 28 days
Description: CTG-3283 ER+ breast xenograft tumors were harvested from donor mice and cut into fragments approximately 50 mm^3 in volume and then reimplanted adjacent to the #3 mammary fat pad.
CTG-3283 ER+ Breast PDX fragments were implanted orthotopically adjacent to the #3 mammary fat pad using a 10-gauge trocar in female NSG mice. […] Palbociclib was dosed orally once daily.

[16] = test system: OVCAR3 cells; assay: Effect on cell cycle in OVCAR3 cell line (flow cytometry); format: cell-based, human; conditions: 20 to 24 hours, 0.03, 0.1, 0.3, 1, and 3 μM
Description: Compounds were tested in the CCNE1-amplified ovarian cell line OVCAR3 to assess their effect on cell cycle phases G1 and S and potential off-target effects on cell cycle phases G2 and M.
OVCAR3 cells were seeded at 60,000 cells per well in 24 well plates, 4 wells per sample, in RPMI with 10% Fetal bovine serum. Test compounds were diluted in 96 well plates in dimethyl sulfoxide (DMSO) and then added to the wells containing the cells. The 24 well plates were placed in an incubator maintained at 37° C. and 5% CO2 and incubated for 20 to 24 hours. The next day an EdU assay was performed following the manufacturer's protocol (Thermo Fisher, C10425 EdU Alexa Fluor 488). Antibody staining was carried out using PE Mouse Anti-Cleaved PARP (BD Biosciences Catalog No. 552933) and 4′,6-diamidino-2-phenylindole (DAPI). Cells were then analyzed by flow cytometry.

[17] = test system: pRB (S780) in OVCAR3 human ovarian cancer xenograft; assay: Pharmacodynamic effect (pRB) in OVCAR3 xenograft model; format: in vivo, mice; conditions: 3 days dosing, Western blot
Description: 15 Million OVCAR3 human ovarian cells were implanted subcutaneously in the right flank of female CB17 SCID mice. […] Palbociclib was dosed orally once daily.

[18] = test system: pRB (S780) in MCF7-PC1 human palbociclib resistant ER+ breast cancer xenograft; assay: Pharmacodynamic effect (pRB) in MCF7-PC1 palbociclib resistant ER+ breast cancer xenograft model; format: in vivo, mice; conditions: 3 days dosing, Western blot
Description: MCF7-PC1 cells were generated as described in Example 70.
Palbociclib was dosed orally once daily.

[19] = test system: pRB (S780) in CTG-3298 human CDK4/6 resistant ER+ breast cancer xenograft; assay: Pharmacodynamic effect (pRB) in CTG-3298 xenograft model; conditions: 3 days dosing, Western blot
Description: A study was conducted to evaluate the in vivo pharmacodynamic response of monotherapy with a CDK2 inhibitor and combination therapy with a CDK2 inhibitor and palbociclib in a CTG-3298 human CDK4/6 resistant ER+ breast cancer xenograft model.
CTG-3298 fragments were implanted adjacent to the #3 mammory fat pad of female NSG mice. […] Mice were treated for 3 days with vehicle (0.5% HPMC/0.1% Tween 80), palbociclib at 50 mg/kg, test compound at 30 or 60 mg/kg, or the combination of test compound and palbociclib. Test compound was dosed orally twice daily 10 hours apart on day one and two and a single dose in the morning on day 3. Palbociclib was dosed orally once daily. When administered in combination with test compound, palbociclib was dosed 4 hours after the morning dose of test compound on days one and two and 15 minutes after the morning dose of test compound on day 3. The time course of sample collection was as follows: (i) the test compound at 30 mg/kg groups with and without palbociclib treatment were collected at 2, 4 and 8 hours; (ii) all other groups were collected at 2, 8, and 24 hours. pRB (S780) was evaluated by western blotting.

[20] = test system: pRB (S780) in CTG-3283 human CDK4/6 resistant ER+ breast cancer xenograft; assay: Pharmacodynamic effect (pRB) in CTG-3283 xenograft model; conditions: 3 days dosing, Western blot
Description: A study was conducted to evaluate the in vivo pharmacodynamic response of monotherapy with a CDK2 inhibitor and combination therapy with a CDK2 inhibitor and palbociclib in a CTG-3283 human CDK4/6 resistant ER+ breast cancer xenograft model.
CTG-3283 fragments were implanted adjacent to the #3 mammory fat pad of female NSG mice. […] Mice were treated for 3 days with vehicle (0.5% HPMC/0.1% Tween 80), palbociclib at 50 mg/kg, test compound at 30 or 60 mg/kg, or the combination of test compound and palbociclib. Test compound was dosed orally twice daily 10 hours apart on day one and two and a single dose in the morning on day 3. Palbociclib was dosed orally once daily. When administered in combination with test compound, palbociclib was dosed 4 hours after the morning dose of test compound on days one and two and 15 minutes after the morning dose of test compound on day 3. The time course of sample collection was as follows: (i) the test compound at 30 mg/kg groups with and without palbociclib treatment were collected at 2, 4, and 8 hours; (ii) all other groups were collected at 2, 8, and 24 hours. pRB (S780) was evaluated by western blotting.

[21] = test system: pHH3 in T47D P1 human palbociclib resistant ER+ breast cancer xenograft; assay: Pharmacodynamic effect in T47D P1 palbociclib resistant ER+ breast xenograft model; conditions: 3 days dosing, Western blot
Description: A study was conducted to evaluate the in vivo pharmacodynamic response of monotherapy with a CDK2 inhibitor and combination therapy with a CDK2 inhibitor and palbociclib in a T47D P1 human palbociclib resistant ER+ breast cancer xenograft model.
T47D P1 cells were generated to be resistant to palbociclib through chronic treatment with palbociclib over the course of about three months with increasing concentrations up to 3 μM. The resulting cells (T47D P1) were then banked for use in subsequent experiments. T47D P1 cells were grown in phenol red free RPMI 1640 supplemented with 10% fetal bovine serum and 3 μM palbociclib. Cells were harvested with 0.25% trypsin and resuspended in PBS/phenol red free Matrigel (50/50).
10 Million T47D P1 cells were implanted orthotopically into the #3 mammary fat pad of female NSG mice. 0.5 mg 90 day release 17B-estradiol pellets from Innovative Research of America were implanted subcutaneously three days prior to cell implant. […] The time course of sample collection was as follows: (i) the test compound at 30 mg/kg groups with and without palbociclib treatment were collected at 2, 4 and 8 hours; and (ii) all other groups were collected at 2, 8 and 24 hours. pHH3 was evaluated by western blotting.

[22] = Compound 6 at 30 mg/kg orally twice daily
[23] = Compound 6 at 60 mg/kg orally twice daily

CC[C@H](CO)Nc1nc(N[C@H]2CCN(S(=O)(=O)NC)C2)c2ncn(CC)c2n1 [Example 47, (S)-3-((9-ethyl-2-(((R)-1-hydroxybutan-2-yl)amino)-9H-purin-6-yl)amino)-N-methylpyrrolidine-1-sulfonamide]
IC50 [1]: 35 nM | IC50 [2]: 562 nM | IC50 [3]: 7400 nM | IC50 [4]: 152 nM | IC50 ([5]; MCF-7 cells, 2 hours): > 30000 nM | IC50 [6]: 705 nM | IC50 [7]: 185 nM | microsomal CLint at 1 μM [8]: < 1 | HLM CLint [9]: 26 µL/min/mg | solubility at 24 h [10]: 253 µM (≈ 104 µg/mL)

CCNS(=O)(=O)N1CC[C@H](Nc2nc(N[C@@H](CC)[C@@H](C)O)nc3c2ncn3CC)C1 [Compound 6, (S)—N-ethyl-3-((9-ethyl-2-(((2R,3S)-2-hydroxypentan-3-yl)amino)-9H-purin-6-yl)amino)pyrrolidine-1-sulfonamide]
IC50 [5]: > 19300 nM | IC50 [6]: 278 nM | IC50 [11]: 77 nM | IC50 [12]: 1960 nM | % INHIBITION [13, 22]: 31% | % INHIBITION ([13]; Compound 6 at 100 mg/kg orally twice daily): 94% | % INHIBITION ([13]; Compound 6 at 150 mg/kg orally twice daily): >100% | durability on monitoring for regrowth ([13]; Compound 6 at 150 mg/kg, compared to Compound 6 at 100 mg/kg group): showed increased durability | % INHIBITION (end of dosing) [14, 22]: 82% | % INHIBITION (end of dosing) [14, 23]: 87% | durability of response ([14]; Compound 6 at 60 mg/kg without palbociclib): more durable response | tumor growth inhibition ([15]; CTG-3283 xenograft, Compound 6 at 30 and 60 mg/kg monotherapy or combination with palbociclib): lower inhibition of tumor growth | % INHIBITION (end of dosing) [15, 22]: 28% | % INHIBITION (end of dosing) [15, 23]: 21% | effect on cell cycle phase [16]: increased the population of cells in the G0 and G1 phases | pRB levels [17]: time dependent inhibition of pRB | pRB levels [18]: time dependent inhibition of pRB | pRB levels [19]: dose dependent inhibition of pRB | pRB levels [20]: dose dependent inhibition of pRB | pHH3 levels [21]: time dependent inhibition of pHH3

From patent publication US20250197425A1, “2,6,9-TRISUBSTITUTED PURINES” (ASTRAZENECA AB, priority 2022, published 2025)
